Tests used:
human Y4 receptor = human Y4 receptor (Homo sapiens, UniProt P50391); test: NPY receptor functional assay (cAMP, HEK-CNG cells, ACTOne membrane potential dye); type: cell-based; details: standard PP, species (human or rat) not given
Outline: (§1)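 HEK-CNG cells stably expressing each human receptor; peptides added in triplicate for 50 minutes at room temperature, with agonism read as decreased isoproterenol-induced membrane potential dye signal (final/initial read).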

human Y2 receptor = biological target: T1, human Y2 receptor (Homo sapiens, UniProt P49146); test: as above; type: cell-based; details: NPY2R pEC50, HEK-CNG cells; standard PYY(3-36); species (human or rat) not given
T1 sequence (P49146 1-381): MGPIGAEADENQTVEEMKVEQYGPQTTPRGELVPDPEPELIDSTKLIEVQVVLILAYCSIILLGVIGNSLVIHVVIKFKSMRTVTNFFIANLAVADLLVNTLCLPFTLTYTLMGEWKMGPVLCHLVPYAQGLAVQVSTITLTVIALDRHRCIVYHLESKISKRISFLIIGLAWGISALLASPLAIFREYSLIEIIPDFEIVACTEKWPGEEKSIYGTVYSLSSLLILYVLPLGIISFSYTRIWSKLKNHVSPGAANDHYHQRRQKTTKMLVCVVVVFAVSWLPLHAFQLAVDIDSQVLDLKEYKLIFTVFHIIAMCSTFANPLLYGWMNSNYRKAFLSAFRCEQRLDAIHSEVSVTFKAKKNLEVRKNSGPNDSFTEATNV
Outline: as §1

[1] = Intravenous infusion pharmacokinetics to assess clearance (CL); type: in vivo, Sprague-Dawley rats; details: male, Sprague-Dawley, plasma, rat, 1-hour IV infusion, 0.033 mg/kg
Procedure: Peptides were dissolved in 0.05% Tween-20 in PBS (pH7.4) and administered as a 1-hour subcutaneous infusion to non-fasted male Sprague-Dawley rats (n=3 per group) at a final dose of 0.033 mg/kg via a cannula placed into the femoral vein. Formulations were administered at a rate of 0.150 mL/h/kg. […] Plasma was prepared by centrifugation and stored at −80° C. until analysis.
(§2) A 70 μL aliquot of each plasma sample was placed into to a 96-well plate. To each well was added 210 μL of 0.1% TFA in 2:1 ethanol:acetonitrile containing an appropriate internal standard. Plates were vortex mixed for 10 min at 1300 rpm, and then centrifuged for 10 min at 500×g. Supernatants (210 μL) were placed into a clean 96-well plate and evaporated under a nitrogen stream at 45° C. Residues were reconstituted in 80 μL of 20% acetonitrile (aq) containing 0.1% formic acid.
(§3) All calibration standards were prepared in control rat plasma containing K2EDTA and protease inhibitor cocktail.
(§4) Samples were injected onto a 2.1×50 mm reverse phase C18 analytical column, typically a Waters CORTECS UPLC C18+, 1.6 μm (Waters Corporation, Milford, MA) or similar. […] Typical flow rates were 550 μL/min. The column temperature was held constant at 45° C. Peptides were quantified by monitoring one or more product ions produced from a multiply charged parent ion.

[2] = Subcutaneous bolus injection pharmacokinetics to assess bioavailability (F); type: in vivo, Sprague-Dawley rats; details: male, Sprague-Dawley, plasma; rat, SC bolus 0.1 mg/kg
Procedure: Peptides were dissolved in sterile saline and administered to non-fasted male Sprague-Dawley rats (n=3 per group) at a dose of 0.1 mg/kg via a single bolus injection into the subcutaneous space between the scapulae. […] Plasma was prepared by centrifugation and stored at −80° C. until analysis.
as §2, §3, §4

human Y4 receptor, sequence (P50391 whole entry): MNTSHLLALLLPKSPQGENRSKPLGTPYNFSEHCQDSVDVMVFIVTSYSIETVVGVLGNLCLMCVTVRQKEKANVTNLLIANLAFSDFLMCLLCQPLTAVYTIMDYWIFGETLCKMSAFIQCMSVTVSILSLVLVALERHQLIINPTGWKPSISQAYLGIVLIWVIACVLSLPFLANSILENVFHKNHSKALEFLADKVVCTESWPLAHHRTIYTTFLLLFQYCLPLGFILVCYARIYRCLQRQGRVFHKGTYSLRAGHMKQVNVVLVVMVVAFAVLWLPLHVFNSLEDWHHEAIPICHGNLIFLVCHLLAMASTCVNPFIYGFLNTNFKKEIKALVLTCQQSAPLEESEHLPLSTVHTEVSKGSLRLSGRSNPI

For `CC(C)C[C@H](NC(=O)[C@H](Cc1ccc(O)cc1)NC(=O)[C@H](Cc1c[nH]cn1)NC(=O)[C@H](CCCNC(=N)N)NC(=O)[C@H](C)NC(=O)[C@H](CC(=O)O)NC(=O)[C@H](C)NC(=O)[C@H](Cc1ccc(O)cc1)NC(=O)[C@H](Cc1ccc(O)cc1)NC(=O)[C@H](CCCNC(=N)N)NC(=O)[C@H](CC(N)=O)NC(=O)[C@H](Cc1c[nH]c2ccccc12)NC(=O)[C@H](CCC(=O)O)NC(=O)[C@H](CCC(=O)O)NC(=O)[C@@H]1CCCN1C(=O)[C@H](CO)NC(=O)[C@H](C)NC(=O)[C@H](CC(=O)O)NC(=O)[C@H](CCCCN)NC(=O)[C@H](CCCCNC(=O)CC[C@H](NC(=O)CC[C@H](NC(=O)CCCCCCCCCCCCCCCCCCC(=O)O)C(=O)O)C(=O)O)NC(=O)[C@@H]1CCCN1C(=O)[C@H](C)NC(=O)[C@H](CCC(=O)O)NC(=O)[C@@H]1CCCN1C(=O)[C@H](CCCCN)NC(=O)[C@@H]1CCCN1)C(=O)N[C@@H](CC(N)=O)C(=O)N[C@@H](Cc1c[nH]c2ccccc12)C(=O)N[C@@H](CC(C)C)C(=O)N[C@H](C(=O)N[C@@H](CCCNC(=N)N)C(=O)N[C@@H](CCC(N)=O)C(=O)N[C@@H](CCCNC(=N)N)C(=O)N(C)[C@@H](Cc1ccc(O)cc1)C(N)=O)[C@@H](C)O` [Compound A7], the “NPY4R pEC50” value (human Y4 receptor) was “inactive”, the EC50 (human Y2 receptor) was 0.2 nM and the clearance [1] was 0.326 mL/min/kg. It also gave a half-life ([1]; read-out: IV t1/2 (converted)) of 6.44 h and a bioavailability [2] of 66.7%.

— patent US12122816B2, “Long acting peptide tyrosine tyrosine (PYY) analogs and methods of use” (Intarcia Therapeutics, Inc., priority 2020, dated 2024)
